Results on 18 compounds are retold here after patent US20220089575A1, “FARNESOID X RECEPTOR AGONISTS AND USES THEREOF” (Metacrine, Inc., priority 2017, published 2022).

Each structure is given as a SMILES string. pEC50: −log10 of the molar value. Structures can show the parent of a compound that is named as a salt.

The target of the assay is T1, hFXR (Homo sapiens, UniProt Q96RI1).
T1 construct: expressed in transfected cells; host or cells: CV-1 cells
T1 sequence (Q96RI1 1-486): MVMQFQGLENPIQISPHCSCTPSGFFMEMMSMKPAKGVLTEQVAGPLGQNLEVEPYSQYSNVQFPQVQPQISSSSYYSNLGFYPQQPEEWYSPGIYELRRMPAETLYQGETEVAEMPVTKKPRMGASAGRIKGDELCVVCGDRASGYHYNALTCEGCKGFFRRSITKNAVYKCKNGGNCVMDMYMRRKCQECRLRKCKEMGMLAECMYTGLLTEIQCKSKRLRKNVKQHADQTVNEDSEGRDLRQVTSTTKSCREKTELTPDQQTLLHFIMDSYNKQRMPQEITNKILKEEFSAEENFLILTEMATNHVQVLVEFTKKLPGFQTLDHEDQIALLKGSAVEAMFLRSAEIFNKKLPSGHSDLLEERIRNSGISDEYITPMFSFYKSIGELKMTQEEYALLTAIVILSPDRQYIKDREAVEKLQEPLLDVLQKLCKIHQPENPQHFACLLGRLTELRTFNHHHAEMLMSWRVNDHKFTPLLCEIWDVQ
T1 sequence (P19793 1-462 partner): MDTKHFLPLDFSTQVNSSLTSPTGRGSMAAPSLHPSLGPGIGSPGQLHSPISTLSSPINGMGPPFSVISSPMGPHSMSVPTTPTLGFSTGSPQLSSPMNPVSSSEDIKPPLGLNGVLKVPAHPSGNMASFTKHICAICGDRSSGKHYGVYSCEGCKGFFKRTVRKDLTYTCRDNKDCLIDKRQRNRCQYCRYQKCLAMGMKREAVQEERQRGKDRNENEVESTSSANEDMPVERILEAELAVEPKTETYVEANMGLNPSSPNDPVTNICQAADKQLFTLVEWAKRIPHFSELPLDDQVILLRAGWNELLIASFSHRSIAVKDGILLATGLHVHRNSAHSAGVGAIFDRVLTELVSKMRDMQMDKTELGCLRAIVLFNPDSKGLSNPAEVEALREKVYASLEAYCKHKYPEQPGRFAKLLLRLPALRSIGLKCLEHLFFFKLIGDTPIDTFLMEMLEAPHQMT
Briefly: In Vitro FXR Assay (TK): TK-ECRE-luc reporter in transfected CV-1 cells. The note with it: 18 hrs, luminescence, maximum efficacy of <25% of the Fexarmine control classified as '+'. Type of assay: cell-based. A digest of the protocol:
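CV-1, transient co-transfection: hFXR + hRXR + TK-ECRE-luc + pCMX-YFP; charcoal-stripped serum. 18 h post-transfection, DMSO serial dilutions of cpd added; 18 h incubation; lysis, luminescence.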
The pEC50 is −log10 of the EC50, conventionally taken in molar units. A high value points to a low EC50. For `COc1ccc([C@H]2CC[C@H](CN(c3cc(-c4coc(C(C)C)n4)ccn3)C(=O)[C@H]3CC[C@H](OC(=O)N4CC(CO)C4)CC3)CC2)nc1C` [Compound 7.97, trans-4-((4-(2-Isopropyloxazol-4-yl)pyridine-2-yl)((trans-4-(5-methoxy-6-methylpyridin-2-yl)cyclohexyl)methyl)carbamoyl)cyclohexyl 3-(hydroxymethyl)azetidine-1-carboxylate], the negative-log EC50 (pEC50) is ≥ 6.60.

`C#CC1CN(C(=O)O[C@H]2CC[C@H](C(=O)N(C[C@H]3CC[C@H](c4ccc(OC)c(C)n4)CC3)c3cc(-c4coc(C5CC5)n4)ccn3)CC2)C1` [Compound 7.98, trans-4-((4-(2-Cyclopropyloxazol-4-yl)pyridine-2-yl)((trans-4-(5-methoxy-6-methylpyridin-2-yl)cyclohexyl)methyl)carbamoyl)cyclohexyl 3-ethynylazetidine-1-carboxylate]: the negative-log EC50 (pEC50) was ≥ 6.60.

Consider `COc1ccc([C@H]2CC[C@H](CN(c3cc(-c4coc(C5CC5)n4)ccn3)C(=O)[C@H]3CC[C@H](OC(=O)N4CC(C(C)(C)O)C4)CC3)CC2)nc1C` [Compound 7.99, trans-4-((4-(2-Cyclopropyloxazol-4-yl)pyridine-2-yl)((trans-4-(5-methoxy-6-methylpyridin-2-yl)cyclohexyl)methyl)carbamoyl)cyclohexyl 3-(2-hydroxypropan-2-yl)azetidine-1-carboxylate], for which the negative-log EC50 (pEC50) is ≥ 6.60.

For the compound `CCC1CN(C(=O)O[C@H]2CC[C@H](C(=O)N(C[C@H]3CC[C@H](c4ccc(OC)c(C)n4)CC3)c3cc(-c4coc(C(C)C)n4)ccn3)CC2)C1` [Compound 7.100, trans-4-((4-(2-Isopropyloxazol-4-yl)pyridine-2-yl)((trans-4-(5-methoxy-6-methylpyridin-2-yl)cyclohexyl)methyl)carbamoyl)cyclohexyl 3-ethylazetidine-1-carboxylate], the pEC50 is ≥ 6.60.

On to `COc1ccc([C@H]2CC[C@H](CN(c3cc(-c4coc(C5CC5)n4)ccn3)C(=O)[C@H]3CC[C@H](OC(=O)N4CC(CS(C)(=O)=O)C4)CC3)CC2)nc1C` [Compound 7.101, trans-4-((4-(2-Cyclopropyloxazol-4-yl)pyridine-2-yl)((trans-4-(5-methoxy-6-methylpyridin-2-yl)cyclohexyl)methyl)carbamoyl)cyclohexyl 3-((methylsulfonyl)methyl)azetidine-1-carboxylate], for which the negative-log EC50 (pEC50) is ≥ 6.60.

Consider `COc1ccc([C@H]2CC[C@H](CN(c3cc(-c4coc(C5CC5)n4)ccn3)C(=O)[C@H]3CC[C@H](OC(=O)N4CC(C(C)C)C4)CC3)CC2)nc1C` [Compound 7.102, trans-4-((4-(2-Cyclopropyloxazol-4-yl)pyridine-2-yl)((trans-4-(5-methoxy-6-methylpyridin-2-yl)cyclohexyl)methyl)carbamoyl)cyclohexyl 3-isopropylazetidine-1-carboxylate], for which the negative logarithm of the EC50 (pEC50) was ≥ 6.60.

Take `COc1ccc([C@H]2CC[C@H](CN(c3cc(-c4coc(C5CC5)n4)ccn3)C(=O)[C@H]3CC[C@H](OC(=O)N4CC(C(C)(C)C)C4)CC3)CC2)nc1C` [Compound 7.103, trans-4-((4-(2-Cyclopropyloxazol-4-yl)pyridine-2-yl)((trans-4-(5-methoxy-6-methylpyridin-2-yl)cyclohexyl)methyl)carbamoyl)cyclohexyl 3-(tert-butyl)azetidine-1-carboxylate]: the pEC50 was ≥ 6.60.

As for `CCCOC1CN(C(=O)O[C@H]2CC[C@H](C(=O)N(C[C@H]3CC[C@H](c4ccc(OC)c(C)n4)CC3)c3cc(-c4coc(C5CC5)n4)ccn3)CC2)C1` [Compound 7.104, trans-4-((4-(2-Cyclopropyloxazol-4-yl)pyridine-2-yl)((trans-4-(5-methoxy-6-methylpyridin-2-yl)cyclohexyl)methyl)carbamoyl)cyclohexyl 3-propoxyazetidine-1-carboxylate], the negative logarithm of the EC50 (pEC50) is ≥ 6.60.

Take `CCCC1CN(C(=O)O[C@H]2CC[C@H](C(=O)N(C[C@H]3CC[C@H](c4ccc(OC)c(C)n4)CC3)c3cc(-c4coc(C5CC5)n4)ccn3)CC2)C1` [Compound 7.105, trans-4-((4-(2-Cyclopropyloxazol-4-yl)pyridin-2-yl)((trans-4-(5-methoxy-6-methylpyridin-2-yl)cyclohexyl)methyl)carbamoyl)cyclohexyl 3-propylazetidine-1-carboxylate]: the pEC50 was ≥ 6.60.

Consider `COc1ccc([C@H]2CC[C@H](CN(c3cc(-c4coc(C5CC5)n4)ccn3)C(=O)[C@H]3CC[C@H](OC(=O)N4CC(CN(C)C)C4)CC3)CC2)nc1C` [Compound 7.106, trans-4-((4-(2-Cyclopropyloxazol-4-yl)pyridin-2-yl)((trans-4-(5-methoxy-6-methylpyridin-2-yl)cyclohexyl)methyl)carbamoyl)cyclohexyl 3-((dimethylamino)methyl)azetidine-1-carboxylate], for which the negative-log EC50 (pEC50) was ≥ 6.60.

Take `COc1ccc([C@H]2CC[C@H](CN(c3cc(-c4coc(C5CC5)n4)ccn3)C(=O)[C@H]3CC[C@H](OC(=O)N4CCOC(C)C4)CC3)CC2)nc1C` (stereo partly drawn) [Compound 7.107, trans-4-((4-(2-Cyclopropyloxazol-4-yl)pyridin-2-yl)((trans-4-(5-methoxy-6-methylpyridin-2-yl)cyclohexyl)methyl)carbamoyl)cyclohexyl 2-methylmorpholine-4-carboxylate]: the negative logarithm of the EC50 (pEC50) was ≥ 6.60.

As for `COc1ccc([C@H]2CC[C@H](CN(c3cc(-c4coc(C5CC5)n4)ccn3)C(=O)[C@H]3CC[C@H](OC(=O)N4CC(N5CC(O)C5)C4)CC3)CC2)nc1C` [Compound 7.108, trans-4-((4-(2-Cyclopropyloxazol-4-yl)pyridin-2-yl)((trans-4-(5-methoxy-6-methylpyridin-2-yl)cyclohexyl)methyl)carbamoyl)cyclohexyl 3-hydroxy-[1,3′-biazetidine]-1′-carboxylate], the pEC50 was ≥ 6.60.

Turning to `CCc1nc(-c2ccnc(N(C[C@H]3CC[C@H](c4ccc(OC)c(C)n4)CC3)C(=O)[C@H]3CC[C@H](OC(=O)N4CC(O)C4)CC3)c2)co1` [Compound 7.109, trans-4-((4-(2-Ethyloxazol-4-yl)pyridin-2-yl)((trans-4-(5-methoxy-6-methylpyridin-2-yl)cyclohexyl)methyl)carbamoyl)cyclohexyl 3-hydroxyazetidine-1-carboxylate], the negative logarithm of the EC50 (pEC50) is ≥ 6.60.

For `COc1ccc([C@H]2CC[C@H](CN(c3cccc(-c4cnn(C5CC5)c4)c3)C(=O)[C@H]3CC[C@H](OC(=O)N4CC(C[S+](C)[O-])C4)CC3)CC2)cc1C` (stereo partly drawn) [Compound 8, trans-4-((3-(1-Cyclopropyl-1H-pyrazol-4-yl)phenyl)((trans-4-(4-methoxy-3-methylphenyl)cyclohexyl)methyl)carbamoyl)cyclohexyl 3-((methylsulfinyl)methyl)azetidine-1-carboxylate], the pEC50 is ≥ 6.60.

On to `COc1ccc([C@H]2CC[C@H](CN(c3cccc(-c4cnn(C5CC5)c4)c3)C(=O)[C@H]3CC[C@H](OC(=O)N4CC([S+](C)[O-])C4)CC3)CC2)cc1C` (stereo partly drawn) [Compound 8.01, trans-4-((3-(1-Cyclopropyl-1H-pyrazol-4-yl)phenyl)((trans-4-(4-methoxy-3-methylphenyl)cyclohexyl)methyl)carbamoyl)cyclohexyl 3-(methylsulfinyl)azetidine-1-carboxylate], for which the pEC50 was ≥ 6.60.

In the case of `COc1ccc([C@H]2CC[C@H](CN(c3cccc(-c4cnn(C5CC5)c4)c3)C(=O)[C@H]3CC[C@H](OC(=O)N4CC(CS(C)(=O)=O)C4)CC3)CC2)cc1C` [Compound 9, trans-4-((3-(1-cyclopropyl-1H-pyrazol-4-yl)phenyl)((trans-4-(4-methoxy-3-methylphenyl)cyclohexyl)methyl)carbamoyl)cyclohexyl 3-((methylsulfonyl)methyl)azetidine-1-carboxylate], the negative-log EC50 (pEC50) is ≥ 6.60.

Regarding `COc1ccc([C@H]2CC[C@H](CN(c3cccc(-c4cnn(C5CC5)c4)c3)C(=O)[C@H]3CC[C@H](OC(=O)[C@H]4CC[C@H](O)CC4)CC3)CC2)cc1C` [Compound 10, trans-4-((3-(1-Cyclopropyl-1H-pyrazol-4-yl)phenyl)((trans-4-(4-methoxy-3-methylphenyl)cyclohexyl)methyl)carbamoyl)cyclohexyl trans-4-hydroxycyclohexanecarboxylate], the pEC50 is ≥ 6.60.

Take `CNCCO[C@H]1CC[C@H](C(=O)N(C[C@H]2CC[C@H](c3ccc(OC)c(C)c3)CC2)c2cccc(-c3cnc(C4CC4)s3)c2)CC1` [Compound 11, trans-N-(3-(2-Cyclopropylthiazol-5-yl)phenyl)-N-((trans-4-(4-methoxy-3-methylphenyl)cyclohexyl)methyl)-4-(2-(methylamino)ethoxy) cyclohexanecarboxamide hydrochloride]: the pEC50 is 6.00 to 6.60.
